Data as given in ChEMBL document CHEMBL1135316, “Parallel solution- and solid-phase synthesis of spirohydantoin derivatives as neurokinin-1 receptor ligands” (Bioorg Med Chem Lett, 2002).

Target: Substance-P receptor (Homo sapiens, UniProt P25103)
Test: Affinity for human Tachykinin receptor 1 expressed in CHO cells
Format: cell-based

Chain of Substance-P receptor (P25103 whole entry): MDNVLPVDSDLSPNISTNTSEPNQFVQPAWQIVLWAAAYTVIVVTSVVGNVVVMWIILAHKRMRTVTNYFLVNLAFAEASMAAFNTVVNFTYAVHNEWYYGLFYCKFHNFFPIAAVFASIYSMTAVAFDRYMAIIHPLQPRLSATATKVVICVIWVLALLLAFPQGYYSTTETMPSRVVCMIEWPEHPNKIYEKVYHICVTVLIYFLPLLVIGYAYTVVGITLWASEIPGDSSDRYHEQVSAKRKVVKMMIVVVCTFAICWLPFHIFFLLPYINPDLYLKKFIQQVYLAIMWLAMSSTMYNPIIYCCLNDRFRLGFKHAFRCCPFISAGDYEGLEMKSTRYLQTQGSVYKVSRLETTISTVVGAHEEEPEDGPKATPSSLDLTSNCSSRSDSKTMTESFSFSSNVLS

First: O=C(c1cc(C(F)(F)F)cc(C(F)(F)F)c1)N1CCC2(CC1)NC(=O)N(CCc1c[nH]c3ccccc13)C2=O
Second: O=C(c1cc(C(F)(F)F)cc(C(F)(F)F)c1)N1CCC2(CC1)NC(=O)N(Cc1cccc(-c3ccccc3)c1)C2=O
The Ki of the first is 4.2-fold higher: 0.575 µM for the first, 0.138 µM for the second. The second binds more tightly here.

`CN1C(=O)N(Cc2cc(C(F)(F)F)cc(C(F)(F)F)c2)C2(CCN(C(=O)c3c(Cl)cccc3Cl)CC2)C1=O` and `CN1C(=O)N(Cc2cc(C(F)(F)F)cc(C(F)(F)F)c2)C2(CCN(C(=O)c3cccc4ccccc34)CC2)C1=O` are within 1.5-fold of each other in Ki: 0.646 µM for the first, 0.457 µM for the second.

Going from `Cc1cccc(NC(=O)N2CCC3(CC2)NC(=O)N(Cc2cc(C(F)(F)F)cc(C(F)(F)F)c2)C3=O)c1` to `N#Cc1cccc(CN2CCC3(CC2)NC(=O)N(Cc2cc(C(F)(F)F)cc(C(F)(F)F)c2)C3=O)c1`, the Ki rises from 0.0457 µM to 0.107 µM (2.3-fold). The first binds more tightly here.

First: CSc1ccc(N2C(=O)NC3(CCN(C(=O)c4cc(C(F)(F)F)cc(C(F)(F)F)c4)CC3)C2=O)cc1
Second: O=C(c1cccc2ccccc12)N1CCC2(CC1)NC(=O)N(c1cc(C(F)(F)F)cc(C(F)(F)F)c1)C2=O
The Ki of the first is 2.6-fold lower: 0.132 µM for the first, 0.339 µM for the second.

`O=C(c1cc(C(F)(F)F)cc(C(F)(F)F)c1)N1CCC2(CC1)NC(=O)N(Cc1ccc3c(c1)OCO3)C2=O` and `Cc1cc(C)c(C(=O)N2CCC3(CC2)NC(=O)N(c2cc(C(F)(F)F)cc(C(F)(F)F)c2)C3=O)c(C)c1` are within 1.5-fold of each other in Ki: 0.245 µM for the first, 0.324 µM for the second.

Going from `CN1C(=O)N(Cc2cc(C(F)(F)F)cc(C(F)(F)F)c2)C2(CCN(C(=O)CN3CCC(Cc4ccccc4)CC3)CC2)C1=O` to `O=C1NC2(CCN(S(=O)(=O)CCc3cccc4ccccc34)CC2)C(=O)N1Cc1cc(C(F)(F)F)cc(C(F)(F)F)c1`, the Ki falls from 3.72 µM to 0.0741 µM (50-fold).
